Assays:
[1] = Metabolic stability in mouse liver microsomes assessed as parent compound remaining at 0.1 uM in presence of NADPH after 30 mins by LC-MS/MS analysis; type: ADME, microsome; conditions: read-out: Stability
[2] = Metabolic stability in rat liver microsomes assessed as parent compound remaining at 0.1 uM in presence of NADPH after 30 mins by LC-MS/MS analysis; type: ADME, microsome; conditions: read-out: Stability
[3] = Metabolic stability in human liver microsomes assessed as parent compound remaining at 0.1 uM in presence of NADPH after 30 mins by LC-MS/MS analysis; type: ADME, microsome; conditions: read-out: Stability
Mus musculus [4] = assay: AUC (0 to infinity) in Balb/c mouse pretreated with CYP inhibitor ABT at 20 mg/kg, po by LC-MS analysis; type: ADME, organism-based; parameters: dose 20 mg/kg, route oral, time infinity; conditions: in vivo
[5] = Cmax in Balb/c mouse pretreated with CYP inhibitor ABT at 20 mg/kg, po by LC-MS analysis; type: ADME, organism-based; parameters: dose 20 mg/kg, route oral; conditions: in vivo
Mus musculus [6] = assay: AUC (0 to infinity) in Balb/c mouse at 20 mg/kg, po by LC-MS analysis; type: ADME, organism-based; parameters: dose 20 mg/kg, route oral, time infinity; conditions: in vivo
[7] = Cmax in Balb/c mouse at 20 mg/kg, po by LC-MS analysis; type: ADME, organism-based; parameters: dose 20 mg/kg, route oral; conditions: in vivo
[8] = Apparent half life in Balb/c mouse at 2 mg/kg, iv by LC-MS analysis; type: ADME, organism-based; conditions: in vivo, read-out: t1/2(app) (converted)
Mus musculus [9] = assay: AUC (0 to infinity) in Balb/c mouse at 2 mg/kg, iv by LC-MS analysis; type: ADME, organism-based; parameters: dose 2 mg/kg, route intravenous, time infinity; conditions: in vivo
[10] = Tmax in Balb/c mouse pretreated with CYP inhibitor ABT at 20 mg/kg, po by LC-MS analysis; type: ADME, organism-based; conditions: in vivo
[11] = Apparent half life in Balb/c mouse at 20 mg/kg, po by LC-MS analysis; type: ADME, organism-based; conditions: in vivo, read-out: t1/2(app) (converted)
[12] = Tmax in Balb/c mouse at 20 mg/kg, po by LC-MS analysis; type: ADME, organism-based; conditions: in vivo
[13] = Apparent half life in Balb/c mouse pretreated with CYP inhibitor ABT at 20 mg/kg, po by LC-MS analysis; type: ADME, organism-based; conditions: in vivo, read-out: t1/2(app) (converted)
[14] = Octanol-phosphate buffer distribution coefficient, log D of the compound at pH 7.4 measured after 1 hr by HPLC method; type: physicochemical
Mus musculus [15] = assay: AUC in humanized NOD-scid IL2Rgamma null mouse infected with Plasmodium falciparum 3D70087/N9 at 10 mg/kg, po up to 24 hrs post dose by LC-MS/MS analysis; type: ADME, organism-based; parameters: time < 24 hr, dose 10 mg/kg, route oral; conditions: in vivo
Mus musculus [16] = assay: AUC in humanized NOD-scid IL2Rgamma null mouse infected with Plasmodium falciparum 3D70087/N9 at 50 mg/kg, po up to 24 hrs post dose by LC-MS/MS analysis; type: ADME, organism-based; parameters: time < 24 hr, dose 50 mg/kg, route oral; conditions: in vivo
[17] = Cmax in humanized NOD-scid IL2Rgamma null mouse infected with Plasmodium falciparum 3D70087/N9 at […], po up to 96 hrs post dose by LC-MS/MS analysis; type: ADME, organism-based; parameters: dose 2.5 mg/kg, route oral; conditions: in vivo
[18] = Apparent half life in Balb/c mouse pretreated with CYP inhibitor ABT at 5 mg/kg, po by LC-MS analysis; type: ADME, organism-based; conditions: in vivo, read-out: t1/2(app) (converted)
[19] = Tmax in humanized NOD-scid IL2Rgamma null mouse infected with Plasmodium falciparum 3D70087/N9 at 10 mg/kg, po up to 96 hrs post dose by LC-MS/MS analysis; type: ADME, organism-based; conditions: in vivo
Mus musculus [20] = assay: AUC in humanized NOD-scid IL2Rgamma null mouse infected with Plasmodium falciparum 3D70087/N9 at 5 mg/kg, po up to 24 hrs post dose by LC-MS/MS analysis; type: ADME, organism-based; parameters: time < 24 hr, dose 5 mg/kg, route oral; conditions: in vivo
[21] = Cmax in Balb/c mouse pretreated with CYP inhibitor ABT at 5 mg/kg, po by LC-MS analysis; type: ADME, organism-based; parameters: dose 5 mg/kg, route oral; conditions: in vivo
[22] = Volume of distribution in Balb/c mouse at […], iv by LC-MS analysis; type: ADME, organism-based; conditions: in vivo
[23] = Tmax in humanized NOD-scid IL2Rgamma null mouse infected with Plasmodium falciparum 3D70087/N9 at 50 mg/kg, po up to 96 hrs post dose by LC-MS/MS analysis; type: ADME, organism-based; conditions: in vivo
[24] = Cmax in humanized NOD-scid IL2Rgamma null mouse infected with Plasmodium falciparum 3D70087/N9 at 50 mg/kg, po up to 96 hrs post dose by LC-MS/MS analysis; type: ADME, organism-based; parameters: dose 50 mg/kg, route oral; conditions: in vivo
Mus musculus [25] = assay: AUC (0 to infinity) in Balb/c mouse at […], iv by LC-MS analysis; type: ADME, organism-based; parameters: dose 1.5 mg/kg, time infinity, route intravenous; conditions: in vivo
Mus musculus [26] = assay: AUC in humanized NOD-scid IL2Rgamma null mouse infected with Plasmodium falciparum 3D70087/N9 at […], po up to 24 hrs post dose by LC-MS/MS analysis; type: ADME, organism-based; parameters: dose 2.5 mg/kg, time < 24 hr, route oral; conditions: in vivo
[27] = Tmax in humanized NOD-scid IL2Rgamma null mouse infected with Plasmodium falciparum 3D70087/N9 at […], po up to 96 hrs post dose by LC-MS/MS analysis; type: ADME, organism-based; conditions: in vivo
[28] = Tmax in Balb/c mouse pretreated with CYP inhibitor ABT at 5 mg/kg, po by LC-MS analysis; type: ADME, organism-based; conditions: in vivo
[29] = Cmax in humanized NOD-scid IL2Rgamma null mouse infected with Plasmodium falciparum 3D70087/N9 at 5 mg/kg, po up to 96 hrs post dose by LC-MS/MS analysis; type: ADME, organism-based; parameters: dose 5 mg/kg, route oral; conditions: in vivo
[30] = Tmax in humanized NOD-scid IL2Rgamma null mouse infected with Plasmodium falciparum 3D70087/N9 at 5 mg/kg, po up to 96 hrs post dose by LC-MS/MS analysis; type: ADME, organism-based; conditions: in vivo
[31] = In vivo drug metabolism in Balb/c mouse assessed as naphthyridine core or pyridine substituent oxidation metabolite formation in plasma at 5 mg/kg, po or […], iv by LC-MS analysis; type: ADME, organism-based
[32] = Cmax in humanized NOD-scid IL2Rgamma null mouse infected with Plasmodium falciparum 3D70087/N9 at 10 mg/kg, po up to 96 hrs post dose by LC-MS/MS analysis; type: ADME, organism-based; parameters: dose 10 mg/kg, route oral; conditions: in vivo

| remaining at 0.5 h, 0.1 µM [1] | remaining at 0.5 h, 0.1 µM [2] | remaining at 0.5 h, 0.1 µM [3] | Compound | further results |
| --- | --- | --- | --- | --- |
| 2% | – | – | NS(=O)(=O)c1cncc(-c2ccc3nccc(-c4cn[nH]c4)c3n2)c1 | – |
| < 1% | < 1% | < 1% | O=S(=O)(NCCN1CCOCC1)c1cccc(-c2ccc3nccc(-c4ccncc4)c3n2)c1 | – |
| 12% | 10% | 17% | O=S(=O)(c1cccc(-c2ccc3nccc(-c4ccncc4)c3n2)c1)N1CC[C@H](O)C1 | – |
| – | – | – | NS(=O)(=O)c1cccc(-c2ccc3nccc(-c4ccncc4)c3n2)c1 | AUC (Mus musculus [4]): 243 µM/min; Cmax [5]: 500 nM; AUC (Mus musculus [6]): 523 µM/min; Cmax [7]: 5000 nM; half-life [8]: 2.5 h; AUC (Mus musculus [9]): 111 µM/min; Tmax [10]: 0.5 to 1 h; half-life [11]: 1.6 h; Tmax [12]: 0.5 h; half-life [13]: 3.2 h |
| 13% | 36% | 76% | NS(=O)(=O)c1ccc(-c2ccc3nccc(-c4ccncc4)c3n2)cc1 | – |
| 50% | 49% | 59% | CS(=O)(=O)Nc1cccc(-c2ccc3nccc(-c4ccncc4)c3n2)c1 | – |
| 54% | 61% | 78% | Nc1cccc(-c2ccc3nccc(-c4ccncc4)c3n2)c1 | – |
| 2% | 6% | 42% | O=S(=O)(NCc1ccccc1)c1cccc(-c2ccc3nccc(-c4ccncc4)c3n2)c1 | logD at 1 h [14]: 1.8 to 4.2 |
| 8% | 16% | 14% | O=S(=O)(NCCN1CCCC1)c1cccc(-c2ccc3nccc(-c4ccnc(C(F)(F)F)c4)c3n2)c1 | – |
| 60% | 66% | 56% | O=S(=O)(CCN1CCCC1)c1cccc(-c2ccc3nccc(-c4ccncc4)c3n2)c1 | – |
| 7% | 11% | 5% | O=S(=O)(c1cccc(-c2ccc3nccc(-c4ccncc4)c3n2)c1)N1CCC(O)CC1 | – |
| 95% | 94% | 96% | CS(=O)(=O)Nc1ccc2nccc(-c3ccncc3)c2n1 | – |
| 97% | 96% | 95% | NS(=O)(=O)c1cccc(-c2ccc3nccc(-c4ccnc(C(F)(F)F)c4)c3n2)c1 | AUC (Mus musculus [15]): 2035 µM/min; AUC (Mus musculus [16]): 5591 µM/min; Cmax at 96 h [17]: 750 nM; logD at 1 h [14]: 1.8 to 4.2; half-life [18]: 33 h; Tmax [19]: 4 h; AUC (Mus musculus [20]): 1198 µM/min; Cmax [21]: 2800 nM; Vd [22]: 7 L/kg; Tmax [23]: 2.5 h; Cmax [24]: 6360 nM; AUC (Mus musculus [25]): 350 µM/min; AUC (Mus musculus [26]): 658 µM/min; Tmax at 96 h [27]: 4 h; Tmax [28]: 1 h; Cmax [29]: 1470 nM; Tmax [30]: 4 h; Drug metabolism [31]: Metabolite_Detected; Cmax [32]: 2230 nM |
| 19% | 8% | 2% | O=S(=O)(NCC1COC1)c1cccc(-c2ccc3nccc(-c4ccncc4)c3n2)c1 | – |
| 52% | 59% | 95% | O=S(=O)(CCO)c1cccc(-c2ccc3nccc(-c4ccncc4)c3n2)c1 | – |
| 33% | 36% | 34% | C[C@@H]1CN(S(=O)(=O)c2cccc(-c3ccc4nccc(-c5ccncc5)c4n3)c2)C[C@H](C)N1 | – |
| – | – | – | NS(=O)(=O)c1cccc(-c2ccc3nccc(-c4ccncc4F)c3n2)c1 | logD at 1 h [14]: 1.8 to 4.2 |
